{"source": "BindingDB's records for patent US20250161319", "about": "(Asclepieion Pharmaceutical, 2025)"}
{"target": "Mitogen-activated protein kinase kinase kinase kinase 1 (Homo sapiens, UniProt Q92918)", "sequence (Q92918 whole entry)": "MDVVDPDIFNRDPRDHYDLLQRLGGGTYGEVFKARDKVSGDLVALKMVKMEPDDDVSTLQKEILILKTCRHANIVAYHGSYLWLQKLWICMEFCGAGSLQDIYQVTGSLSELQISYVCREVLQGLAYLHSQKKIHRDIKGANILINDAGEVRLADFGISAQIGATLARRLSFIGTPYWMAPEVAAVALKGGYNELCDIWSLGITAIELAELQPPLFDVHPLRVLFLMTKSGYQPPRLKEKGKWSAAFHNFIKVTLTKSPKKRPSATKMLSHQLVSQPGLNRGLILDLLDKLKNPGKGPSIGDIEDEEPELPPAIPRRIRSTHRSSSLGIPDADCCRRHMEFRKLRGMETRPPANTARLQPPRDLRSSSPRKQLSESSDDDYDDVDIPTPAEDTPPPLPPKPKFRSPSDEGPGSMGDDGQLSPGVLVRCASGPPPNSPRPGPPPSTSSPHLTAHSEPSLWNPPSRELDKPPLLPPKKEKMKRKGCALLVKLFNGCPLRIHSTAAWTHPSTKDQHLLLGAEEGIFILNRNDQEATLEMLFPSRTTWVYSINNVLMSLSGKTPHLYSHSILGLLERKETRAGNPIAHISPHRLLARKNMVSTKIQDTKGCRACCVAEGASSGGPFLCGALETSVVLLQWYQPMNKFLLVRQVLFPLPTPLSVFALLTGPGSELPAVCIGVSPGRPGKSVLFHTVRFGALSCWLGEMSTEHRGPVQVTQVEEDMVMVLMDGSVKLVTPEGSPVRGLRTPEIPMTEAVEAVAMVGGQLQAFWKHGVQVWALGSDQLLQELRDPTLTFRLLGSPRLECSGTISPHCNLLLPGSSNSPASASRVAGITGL", "test": "Tests of Compounds for Inhibiting HPK1 Kinase Activity In Vitro", "method": "The compound dilution was transferred into 384-well plate by using a pipette, afterwards, the 384-well plate was sealed and centrifuged at 1000 g for 1 min. 2-fold concentration of HPK1 solution was prepared in the kinase buffer, and then 2.5 μL of the prepared 2-fold concentration of HPK1 solution was added into the 384 wells, centrifuged at 1000 g for 30 s, and incubated for 10 min at room temperature. A mixture of 2-fold concentration of MBP and ATP was prepare in the kinase buffer, and […] of prepared mixture of 2-fold concentration of MBP and ATP was added into the above reaction system for the reaction, centrifuged at 1000 g for 30 s, and then incubated at room temperature for 1 h, 5 μL of ADP-Glo reagent was added into the reaction system, and incubated at room temperature for 40 min. 10 μL of kinase detection reagent was added and incubated at room temperature for 40 min.", "units": {"IC50": "nM"}}
{"compound": "Cn1cccc1-c1cc2cc(NC(=O)C3CC3F)ncc2c(F)c1C#N", "note": "(configuration not stated) [US20250161319, Example 10]", "IC50": "> 300"}
{"compound": "Cn1cccc1-c1cc2cc(NC(=O)c3ccc(N4CCNCC4)cc3)ncc2c(N)c1F", "note": "[US20250161319, Example 6]", "IC50": "< 100"}
{"compound": "CCn1cccc1-c1cc2cc(NC(=O)C3CC3F)ncc2c(N)c1F", "note": "(configuration not stated) [US20250161319, Example 2]", "IC50": "< 50"}
{"compound": "CN1CCN(c2ccc(C(=O)Nc3cc4cc(-c5cccn5C)c(F)c(N)c4cn3)cc2)CC1", "note": "[US20250161319, Example 7]", "IC50": "< 300"}
{"compound": "CCn1cccc1-c1cc2cc(NC(=O)C3CCC(F)CC3)ncc2c(N)c1F", "note": "(configuration not stated) [US20250161319, Example 9]", "IC50": "< 300"}
{"compound": "CC(C)n1cccc1-c1cc2cc(NC(=O)C3CC3F)ncc2c(N)c1F", "note": "(configuration not stated) [US20250161319, Example 3]", "IC50": "< 50"}
{"compound": "C=Cn1cccc1-c1cc2cc(NC(=O)C3CC3F)ncc2c(N)c1F", "note": "(configuration not stated) [US20250161319, Example 4]", "IC50": "< 50"}
